Measured values taken from patent publication US9730940B2, “Purine inhibitors of human phosphatidylinositol 3-kinase delta” (priority 2012, dated 2017).

The compounds below were run against PI3K-alpha (Homo sapiens (Human), UniProt P42336) (assay: HTRF PI3K biochemical assay, alpha isoform). Settings: ratio PI3K-alpha IC50 value/PI3K-delta IC50 value.
Sequence of PI3K-alpha (P42336 whole entry, looked up, canonical isoform): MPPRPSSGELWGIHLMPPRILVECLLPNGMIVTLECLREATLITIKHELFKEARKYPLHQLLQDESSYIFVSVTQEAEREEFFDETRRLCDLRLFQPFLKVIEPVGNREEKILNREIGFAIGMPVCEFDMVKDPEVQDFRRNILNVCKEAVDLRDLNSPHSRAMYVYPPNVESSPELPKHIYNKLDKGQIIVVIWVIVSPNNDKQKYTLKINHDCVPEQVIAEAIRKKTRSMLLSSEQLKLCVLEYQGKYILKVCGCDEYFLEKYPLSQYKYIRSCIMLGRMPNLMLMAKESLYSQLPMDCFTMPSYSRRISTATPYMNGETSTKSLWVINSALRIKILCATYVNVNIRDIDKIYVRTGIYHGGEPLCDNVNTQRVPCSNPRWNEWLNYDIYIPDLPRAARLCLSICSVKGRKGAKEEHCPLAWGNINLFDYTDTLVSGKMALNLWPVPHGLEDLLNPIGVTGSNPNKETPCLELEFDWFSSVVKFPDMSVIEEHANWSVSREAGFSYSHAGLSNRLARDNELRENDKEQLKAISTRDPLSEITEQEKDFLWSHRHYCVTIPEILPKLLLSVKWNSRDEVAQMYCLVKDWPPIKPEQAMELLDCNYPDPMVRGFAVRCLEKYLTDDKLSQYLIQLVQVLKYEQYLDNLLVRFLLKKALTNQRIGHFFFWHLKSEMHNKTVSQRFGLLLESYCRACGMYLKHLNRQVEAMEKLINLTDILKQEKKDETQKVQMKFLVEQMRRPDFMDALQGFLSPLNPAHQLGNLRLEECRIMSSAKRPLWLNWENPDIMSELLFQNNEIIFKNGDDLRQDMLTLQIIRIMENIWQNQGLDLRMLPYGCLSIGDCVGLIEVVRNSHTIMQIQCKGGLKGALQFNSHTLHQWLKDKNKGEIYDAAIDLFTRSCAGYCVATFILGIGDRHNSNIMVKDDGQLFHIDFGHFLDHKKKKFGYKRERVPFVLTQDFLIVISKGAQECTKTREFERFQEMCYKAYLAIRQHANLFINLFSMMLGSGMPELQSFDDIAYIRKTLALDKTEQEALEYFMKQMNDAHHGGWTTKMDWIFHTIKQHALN
Sequence of PI3K-alpha (P27986 whole entry partner, looked up, canonical isoform): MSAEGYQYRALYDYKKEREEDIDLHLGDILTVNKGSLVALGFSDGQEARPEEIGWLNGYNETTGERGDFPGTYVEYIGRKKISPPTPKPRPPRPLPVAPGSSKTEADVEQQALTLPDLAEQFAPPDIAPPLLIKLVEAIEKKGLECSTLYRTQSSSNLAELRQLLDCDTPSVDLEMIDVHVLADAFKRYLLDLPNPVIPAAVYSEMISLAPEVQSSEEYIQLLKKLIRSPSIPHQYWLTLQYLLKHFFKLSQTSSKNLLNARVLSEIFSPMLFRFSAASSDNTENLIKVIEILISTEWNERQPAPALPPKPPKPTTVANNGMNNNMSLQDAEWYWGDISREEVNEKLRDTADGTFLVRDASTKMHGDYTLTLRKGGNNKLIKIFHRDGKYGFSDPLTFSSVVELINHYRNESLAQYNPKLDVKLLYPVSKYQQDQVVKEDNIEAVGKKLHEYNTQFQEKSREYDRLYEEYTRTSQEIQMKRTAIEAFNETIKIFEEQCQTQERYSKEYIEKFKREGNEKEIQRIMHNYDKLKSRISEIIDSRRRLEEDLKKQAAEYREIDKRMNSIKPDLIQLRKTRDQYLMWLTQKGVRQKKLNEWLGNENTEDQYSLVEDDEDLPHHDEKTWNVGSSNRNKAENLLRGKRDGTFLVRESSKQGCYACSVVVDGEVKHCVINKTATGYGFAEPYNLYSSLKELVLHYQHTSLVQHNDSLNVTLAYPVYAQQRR

SMILES | Relative Selectivity versus PI3Kalpha
CCC(=O)N1CC[C@H](Oc2ncnc3c2nc(-c2cnn(CC)c2C)n3CC)C1 [Compound 2-93, (S)-1-(3-((9-ethyl-8-(1-ethyl-5-methyl-1H-pyrazol-4-yl)-9H-purin-6-yl)oxy)pyrrolidin-1-yl)propan-1-one] | >10
CCC(=O)N1CC[C@H](Oc2ncnc3c2nc(-c2cnc(OC)c(C)c2)n3C)C1 [Compound 2-94, (S)-1-(3-((8-(6-methoxy-5-methylpyridin-3-yl)-9-methyl-9H-purin-6-yl)oxy)pyrrolidin-1-yl)propan-1-one] | >10
CCC(=O)N1CC[C@H](Oc2ncnc3c2nc(-c2cnc(C(C)(C)C)s2)n3CC)C1 [Compound 2-95, (S)-1-(3-((8-(2-(tert-butyl)thiazol-5-yl)-9-ethyl-9H-purin-6-yl)oxy)pyrrolidin-1-yl)propan-1-one] | >10
CCC(=O)N1CC[C@H](Oc2ncnc3c2nc(-c2cnc(C(C)(C)C)s2)n3C)C1 [Compound 2-96, (S)-1-(3-((8-(2-(tert-butyl)thiazol-5-yl)-9-methyl-9H-purin-6-yl)oxy)pyrrolidin-1-yl)propan-1-one] | >10
CCC(=O)N1CC[C@H](Oc2ncnc3c2nc(-c2cnn(CC)c2C)n3C2CC2)C1 [Compound 2-97, (S)-1-(3-((9-cyclopropyl-8-(1-ethyl-5-methyl-1H-pyrazol-4-yl)-9H-purin-6-yl)oxy)pyrrolidin-1-yl)propan-1-one] | >10
CCn1c(-c2cnc(C)nc2)nc2c(O[C@H]3CCN(C(=O)C4CC4)[C@@H]3C)ncnc21 [Compound 2-98, 6-{[(2R,3S)-1-(cyclopropylcarbonyl)-2-methylpyrrolidin-3-yl]oxy}-9-ethyl-8-(2-methylpyrimidin-5-yl)-9H-purine] | >10
CCn1c(-c2cnc(C)nc2)nc2c(OC3CN(C(=O)C4CC4)CC3(F)F)ncnc21 (centres unmarked) [Compound 2-99, 6-{[1-(cyclopropylcarbonyl)-4,4-difluoropyrrolidin-3-yl]oxy}-9-ethyl-8-(2-methylpyrimidin-5-yl)-9H-purine] | >10
CCn1c(-c2cnc(C)nc2)nc2c(O[C@H]3CCN(C(=O)[C@@H]4CCC[C@H]4N)C3)ncnc21 [Compound 2-101, (1R,2R)-2-{[(3S)-3-{[9-ethyl-8-(2-methylpyrimidin-5-yl)-9H-purin-6-yl]oxy}pyrrolidin-1-yl]carbonyl}cyclopentanamine] | >10
CCn1c(-c2cnc(C)nc2)nc2c(O[C@H]3CCN(C(=O)C4CNC4)C3)ncnc21 [Compound 2-102, 6-{[(3S)-1-(azetidin-3-ylcarbonyl)pyrrolidin-3-yl]oxy}-9-ethyl-8-(2-methylpyrimidin-5-yl)-9H-purine] | >10
CCn1c(-c2cnc(C)nc2)nc2c(O[C@H]3CCN(C(=O)[C@H]4CCC[C@H]4N)C3)ncnc21 [Compound 2-103, (1R,2S)-2-{[(3S)-3-{[9-ethyl-8-(2-methylpyrimidin-5-yl)-9H-purin-6-yl]oxy}pyrrolidin-1-yl]carbonyl}cyclopentanamine] | >10
CCn1c(-c2cnc(C)nc2)nc2c(O[C@H]3CCN(C(=O)[C@@H]4CN5CC[C@H]4C5)C3)ncnc21 [Compound 2-104, 6-({(3S)-1-[(3S,4R)-1-azabicyclo[2.2.1]hept-3-ylcarbonyl]pyrrolidin-3-yl}oxy)-9-ethyl-8-(2-methylpyrimidin-5-yl)-9H-purine] | >10
CCn1ncc(-c2nc3c(O[C@H]4CCN(C(=O)C5CCC5)C4)ncnc3n2C)c1C [Compound 2-105, 6-{[(3S)-1-(cyclobutylcarbonyl)pyrrolidin-3-yl]oxy}-8-(1-ethyl-5-methyl-1H-pyrazol-4-yl)-9-methyl-9H-purine] | >10
CCn1ncc(-c2nc3c(O[C@H]4CCN(C(=O)C5CC(F)(F)C5)C4)ncnc3n2C)c1C [Compound 2-106, 6-({(3S)-1-[(3,3-difluorocyclobutyl)carbonyl]pyrrolidin-3-yl}oxy)-8-(1-ethyl-5-methyl-1H-pyrazol-4-yl)-9-methyl-9H-purine] | >10
CCn1c(-c2cnc(C)nc2)nc2c(O[C@H]3CCN(C(=O)C4CC4)C3)ncnc21 [Compound 2-107, 6-{[(3S)-1-(cyclopropylcarbonyl)pyrrolidin-3-yl]oxy}-9-ethyl-8-(2-methylpyrimidin-5-yl)-9H-purine] | >10
CCn1c(-c2cnc(C)nc2)nc2c(O[C@H]3CCN(C(=O)C4CC4C)C3)ncnc21 (stereo partly drawn) [Compound 2-108, 9-ethyl-6-({(3S)-1-[(2-methylcyclopropyl)carbonyl]pyrrolidin-3-yl}oxy)-8-(2-methylpyrimidin-5-yl)-9H-purine] | >10
CCn1c(-c2cnc(C)nc2)nc2c(O[C@H]3CCN(C(=O)c4ccn(C)n4)C3)ncnc21 [Compound 2-109, 9-ethyl-6-({(3S)-1-[(1-methyl-1H-pyrazol-3-yl)carbonyl]pyrrolidin-3-yl}oxy)-8-(2-methylpyrimidin-5-yl)-9H-purine] | >10
CCn1c(-c2cnc(C)nc2)nc2c(O[C@H]3CCN(C(=O)[C@H]4C[C@H]5CC[C@@H]4C5)C3)ncnc21 [Compound 2-110, 6-({(3S)-1-[(1R,2S,4S)-bicyclo[2.2.1]hept-2-ylcarbonyl]pyrrolidin-3-yl}oxy)-9-ethyl-8-(2-methylpyrimidin-5-yl)-9H-purine] | >10
CCn1c(-c2cnc(C)nc2)nc2c(O[C@H]3CCN(C(=O)[C@@H](N)C(C)C)C3)ncnc21 [Compound 2-111, (2S)-1-[(3S)-3-{[9-ethyl-8-(2-methylpyrimidin-5-yl)-9H-purin-6-yl]oxy}pyrrolidin-1-yl]-3-methyl-1-oxobutan-2-amine] | >10
CCn1c(-c2cnc(C)nc2)nc2c(O[C@H]3CCN(C(=O)C4(N)CCC4)C3)ncnc21 [Compound 2-112, 1-{[(3S)-3-{[9-ethyl-8-(2-methylpyrimidin-5-yl)-9H-purin-6-yl]oxy}pyrrolidin-1-yl]carbonyl}cyclobutanamine] | >10
CCn1c(-c2cnc(C)nc2)nc2c(O[C@H]3CCN(C(=O)C4CCOC4)C3)ncnc21 (stereo partly drawn) [Compound 2-113, 9-ethyl-8-(2-methylpyrimidin-5-yl)-6-{[(3S)-1-(tetrahydrofuran-3-ylcarbonyl)pyrrolidin-3-yl]oxy}-9H-purine] | >10
CCn1c(-c2cnc(C)nc2)nc2c(O[C@H]3CCN(C(=O)CC(C)(C)N)C3)ncnc21 [Compound 2-114, 4-[(3S)-3-{[9-ethyl-8-(2-methylpyrimidin-5-yl)-9H-purin-6-yl]oxy}pyrrolidin-1-yl]-2-methyl-4-oxobutan-2-amine] | >10
CCn1c(-c2cnc(C)nc2)nc2c(O[C@H]3CCN(C(=O)C=C(C)C)C3)ncnc21 [Compound 2-116, 9-ethyl-6-{[(3S)-1-(3-methylbut-2-enoyl)pyrrolidin-3-yl]oxy}-8-(2-methylpyrimidin-5-yl)-9H-purine] | >10
CCn1c(-c2cnc(C)nc2)nc2c(O[C@H]3CCN(C(=O)C4[C@@H](C)[C@@H]4C)C3)ncnc21 (stereo partly drawn) [Compound 2-121, 6-({(3S)-1-[(2S,3S)-(2,3-dimethylcyclopropyl)carbonyl]pyrrolidin-3-yl}oxy)-9-ethyl-8-(2-methylpyrimidin-5-yl)-9H-purine] | >10
